In brackets after ≈: the same amount, converted by molar mass.

Data set [1] can be described thus: Cytotoxicity against human A549 cells assessed as decrease in cell viability after 72 hrs by MTS assay. In kind it is functional, cell-based. The following applies: A549, 72 h. In general terms: Tetrazolium assays rely on reduction of a dye to a coloured formazan, in cell work by metabolically active cells.
For another data set, the system named is Bacillus spizizenii. The experiment in a line: Antibacterial activity against Bacillus subtilis ATCC 6633 by broth dilution method. It counts as functional. (In broth dilution the organism is exposed to a series of concentrations in liquid medium.)
The test system of a further data set is Salmonella enteritidis. Put plainly: Antibacterial activity against Salmonella enteritidis ATCC 13076 by broth dilution method. The following applies: Salmonella enterica. In kind it is functional, Salmonella enterica subsp. enterica serovar Enteritidis.
The nature of data set [2]: Cytotoxicity against human MCF7 cells assessed as decrease in cell viability after 72 hrs by MTS assay. To be noted: MCF7, 72 h. In kind it is functional, cell-based.
A short description of data set [3]: Cytotoxicity against human HeLa cells assessed as decrease in cell viability after 72 hrs by MTS assay. In kind it is functional, cell-based.
For another data set, the system named is Escherichia coli. Put plainly: Antibacterial activity against Escherichia coli ATCC 25922 by broth dilution method. In kind it is functional.
The nature of data set [4]: Cytotoxicity against human HepG2 cells assessed as decrease in cell viability after 72 hrs by MTS assay. It counts as functional, cell-based. The following applies: HepG2, 72 h.
The next data set concerns Staphylococcus aureus. The experiment in a line: Antibacterial activity against Staphylococcus aureus ATCC 12598 by broth dilution method. In kind it is functional.
Data set [5] in a line: Cytotoxicity against HEK293T cells assessed as decrease in cell viability after 72 hrs by MTS assay. It counts as toxicity, cell-based, HEK-293T. To be noted: human.
The next data set deals with Pseudomonas aeruginosa. The experiment in a line: Antibacterial activity against Pseudomonas aeruginosa ATCC 27853 by broth dilution method. In kind it is functional.

Take `CO[C@@H]1CC(=O)c2cccc3c2[C@@]12Oc1ccc(O)c4c1[C@](O3)(O2)[C@@H]1O[C@@H]1[C@@H]4O` [PREUSSOMERIN C]: the IC50 in data set [1], in [2], in data set [3] and in [4] was over 100 µM throughout. Besides, the MIC in the data set on Bacillus spizizenii, against Salmonella enteritidis, in the data set on Escherichia coli, with Staphylococcus aureus and with Pseudomonas aeruginosa was over 50 µg/mL each time. Moreover, the half-maximal inhibitory concentration (IC50) at 72 h in [5] was over 100 µM.

Regarding `O=C1C=C[C@]23Oc4ccc(O)c5c4[C@](Oc4cccc1c42)(O3)[C@@H]1O[C@@H]1C5=O`, the 50% inhibitory concentration (IC50) was 6.2 µM in [1], 4.2 µM in data set [2], 14 µM in [3] and 8.5 µM in [4]. Besides, the MIC is 50 µg/mL (≈ 138 µM) against Bacillus spizizenii; over 50 µg/mL against Salmonella enteritidis; over 50 µg/mL in the data set with Escherichia coli; 13 µg/mL (≈ 35.9 µM) in the data set with Staphylococcus aureus; over 50 µg/mL against Pseudomonas aeruginosa. Further, in data set [5], the half-inhibitory concentration (IC50) at 72 h is 17 µM.

Turning to `O=C1C=C[C@]23Oc4ccc(O)c5c4[C@](Oc4cccc1c42)(O3)[C@@H]1O[C@@H]1[C@@H]5O` [PREUSSOMERIN D], the IC50 in data set [1] turned out to be 6.6 µM; in data set [2], 9.8 µM; in data set [3], 21 µM; in data set [4], 38 µM. In addition, the IC50 at 72 h in data set [5] stood at 24 µM.

`O=C1C[C@@H](O)[C@]23Oc4ccc(O)c5c4[C@](Oc4cccc1c42)(O3)[C@@H]1O[C@@H]1C5=O`: the concentration for half-maximal inhibition (IC50) in data set [1] was determined as 5.4 µM; in [2], 2.5 µM; in [3], 15 µM; in data set [4], 3.8 µM. Besides, the MIC in the data set with Bacillus spizizenii is 25 µg/mL (≈ 65.7 µM); with Salmonella enteritidis, over 50 µg/mL; with Escherichia coli, over 50 µg/mL; with Staphylococcus aureus, 50 µg/mL (≈ 131 µM); in the data set on Pseudomonas aeruginosa, over 50 µg/mL. Further, the 50% inhibitory concentration (IC50) at 72 h in data set [5] stood at 9.4 µM.

As to `COc1cccc2c1C(=O)c1c(O)c3c(c(O)c1C2=O)C[C@@](O)(C(=O)CO)C[C@@H]3O[C@H]1C[C@H](N)[C@@H](O)[C@H](C)O1` [EPIRUBICIN], the half-maximal inhibitory concentration (IC50) turned out to be 0.63 µM in data set [1], 0.71 µM in [2] and 0.42 µM in data set [3].

`CO[C@@H]1CC(=O)c2cccc3c2[C@@]12Oc1ccc(O)c4c1[C@](O3)(O2)[C@H](O)[C@H](Cl)C4=O`: the IC50 in data set [1] came to 8.5 µM; in data set [2], 5.9 µM; in data set [3], 19 µM; in [4] it was 13 µM. The MIC is 50 µg/mL (≈ 116 µM) with Bacillus spizizenii; over 50 µg/mL against Salmonella enteritidis; over 50 µg/mL against Escherichia coli; 6.2 µg/mL (≈ 14.4 µM) in the data set on Staphylococcus aureus; over 50 µg/mL with Pseudomonas aeruginosa. Moreover, the 50% inhibitory concentration (IC50) at 72 h in data set [5] worked out at 4.8 µM.

`O=C1CC[C@]23Oc4ccc(O)c5c4[C@](Oc4cccc1c42)(O3)[C@@H]1O[C@@H]1C5=O`: the concentration for half-maximal inhibition (IC50) in data set [1] is 9.4 µM; in data set [2], 2.6 µM; in data set [3] it was 19 µM; in [4], 4.4 µM. Besides, the minimum inhibitory concentration (MIC) was 13 µg/mL (≈ 35.7 µM) against Bacillus spizizenii; over 50 µg/mL against Salmonella enteritidis; over 50 µg/mL in the data set on Escherichia coli; 1.6 µg/mL (≈ 4.39 µM) against Staphylococcus aureus; over 50 µg/mL against Pseudomonas aeruginosa. In data set [5], the concentration for half-maximal inhibition (IC50) at 72 h stood at 12 µM.

Consider `O=C1CC[C@]23Oc4ccc(O)c5c4[C@](Oc4cccc1c42)(O3)[C@@H]1O[C@@H]1[C@@H]5O`, for which the IC50 in [1] was 76.2 µM; in [2], over 100 µM; in [3], over 100 µM; in data set [4] it was over 100 µM. The IC50 at 72 h in data set [5] was determined as 86 µM.

For the compound `O=C(O)c1cn(C2CC2)c2cc(N3CCNCC3)c(F)cc2c1=O` [CIPROFLOXACIN], the MIC against Bacillus spizizenii was found to be 0.5 µg/mL (≈ 1.51 µM); with Salmonella enteritidis, 0.25 µg/mL (≈ 0.754 µM); with Staphylococcus aureus, 0.25 µg/mL (≈ 0.754 µM).

For the compound `O=C1c2c(O)ccc3c2[C@@]2(Oc4cccc5c4[C@](C=C[C@@H]5O)(O3)O2)[C@@H]2O[C@H]12`, the 50% inhibitory concentration (IC50) worked out at 7.7 µM in data set [1], 3.1 µM in data set [2], 18 µM in [3] and 3.6 µM in data set [4]. Also, the minimal inhibitory concentration (MIC) against Bacillus spizizenii was 25 µg/mL (≈ 68.6 µM); in the data set on Salmonella enteritidis it was over 50 µg/mL; against Escherichia coli, over 50 µg/mL; with Staphylococcus aureus it was 13 µg/mL (≈ 35.7 µM); in the data set with Pseudomonas aeruginosa, over 50 µg/mL. In addition, the IC50 at 72 h in [5] worked out at 6.9 µM.

On to `CO[C@@H]1[C@H](Cl)C(=O)c2c(O)ccc3c2[C@@]12Oc1cccc4c1[C@](O3)(O2)[C@H](OC)CC4=O`, for which the 50% inhibitory concentration (IC50) is 8.9 µM in data set [1], 6.2 µM in [2], 27 µM in data set [3] and 7.7 µM in data set [4]. The MIC in the data set on Bacillus spizizenii was 25 µg/mL (≈ 56.2 µM); with Salmonella enteritidis, over 50 µg/mL; against Escherichia coli it was over 50 µg/mL; with Staphylococcus aureus, 3.2 µg/mL (≈ 7.19 µM); in the data set with Pseudomonas aeruginosa, over 50 µg/mL. In addition, in [5], the IC50 at 72 h worked out at 11 µM.

With `Oc1ccc2c3c1[C@@H](O)[C@H]1O[C@H]1[C@]31Oc3cccc4c3[C@](C=C[C@@H]4O)(O2)O1`, the IC50 is 40.2 µM in data set [1], 71 µM in data set [2], over 100 µM in data set [3] and over 100 µM in data set [4]. For the same compound, the minimum inhibitory concentration (MIC) was 13 µg/mL (≈ 35.5 µM) with Bacillus spizizenii; over 50 µg/mL in the data set on Salmonella enteritidis; over 50 µg/mL against Escherichia coli; 6.2 µg/mL (≈ 16.9 µM) in the data set on Staphylococcus aureus; over 50 µg/mL against Pseudomonas aeruginosa. For the same compound, in [5], the IC50 at 72 h is over 100 µM.

For `CO[C@@H]1CC(=O)c2cccc3c2[C@@]12Oc1ccc(O)c4c1[C@](O3)(O2)[C@H](O)CC4=O`, the IC50 in [1] was 36.1 µM; in data set [2], 13 µM; in data set [3], over 100 µM; in data set [4], 83 µM. For the same compound, the IC50 at 72 h in [5] was found to be 83 µM.

The term IC50 denotes the point on the concentration scale where inhibition reaches its midpoint. As usually defined, the MIC is the smallest concentration in the dilution series that meets the test's criterion for growth inhibition. Low readings indicate a more susceptible organism, high ones a less susceptible organism.

The record behind these values is ChEMBL document CHEMBL3867449, “Cytotoxic and Antibacterial Preussomerins from the Mangrove Endophytic Fungus Lasiodiplodia theobromae ZJ-HQ1” (J Nat Prod, 2016).
